These are literature values, as cited in patent US8092822B2, “Coatings including dexamethasone derivatives and analogs and olimus drugs” (Abbott Cardiovascular Systems Inc., priority 2008, dated 2012).

Series [1] concerns human coronary artery endothelial cells. Particulars: in vitro.
The subject of series [2] is endothelial cell proliferation.

Regarding `C[C@@H]1C[C@H]2[C@@H]3CCC4=CC(=O)C=C[C@]4(C)[C@@]3(F)[C@@H](O)C[C@]2(C)[C@@]1(O)C(=O)CO` [dexamethasone, Dexamethasone], the “effect on endothelial migration” value in the series with endothelial migration is reported as “positive effect”.

Regarding `CC(=O)O[C@H]1C(=O)[C@@]2(C)[C@H]([C@H](OC(=O)c3ccccc3)[C@]3(O)C[C@H](OC(=O)[C@H](O)[C@@H](NC(=O)c4ccccc4)c4ccccc4)C(C)=C1C3(C)C)[C@]1(OC(C)=O)CO[C@@H]1C[C@@H]2O` [paclitaxel, Paclitaxel], the “inhibition of migration of human coronary artery endothelial cells” value in series [1] is reported as “inhibits”. Besides, the “inhibition of endothelial cell proliferation” value in series [2] is on record as “inhibit”.

Take `CO[C@H]1C[C@@H]2CC[C@@H](C)[C@@](O)(O2)C(=O)C(=O)N2CCCC[C@H]2C(=O)O[C@H]([C@H](C)C[C@@H]2CC[C@H](n3cnnn3)[C@H](OC)C2)CC(=O)[C@H](C)/C=C(\C)[C@@H](O)[C@@H](OC)C(=O)[C@H](C)C[C@H](C)/C=C/C=C/C=C/1C` [zotarolimus]: the “inhibition of endothelial cell proliferation” value in series [2] is on record as “inhibit”.
